# From US4481201A, “Pharmaceutical composition containing N,N^3 -di-(β-bromopropionyl)-N^1,N^2 -dispirotripiperazinium dichloride” (Vsesojuzny Nauchno-Issledovatelsky Khimoko-Farmasevtichesky …, priority 1981, dated 1984)
# Tests used:
# sarcoma 45 = assay: Growth of graft sarcoma 45 in rats; assay type: in vivo; details: rats
# Source text: (§1) The antitumor activity has been studied on white rats weighing 110-130 g, as well as on white noninbred and inbred mice weighing 17-21 g with ligated tumors. The treatment is started 5-7 days transplanting of solid tumors and the following day after the transplanting of leukotic strains. Use has been made of the following transplantable strains of the tumors:
# (§2) (1) rats: Ienssen's sarcoma, sarcoma 45, sarcoma M-1, sarcoma 536;
# (§3) The compounds of the general formula (I), wherein X represents Cl^- (compound 1), Br^- (compound 2) are well-soluble in an isotonic solution of sodium chloride and they are administered intraperitoneally. The doses of the compounds have been calculated in mg per kg of the animal bodyweight.
# [1] = Growth of graft sarcoma 45 in rats; assay type: in vivo; details: rat, in vivo, ip, rats with sarcoma 45, repeated intraperitoneal administration; read-out: Maximum tolerable dose (MTD)
# Source text: as §1, §2, §3
# sarcoma AK = assay: Growth of graft sarcoma AK in mice; assay type: in vivo, noninbred white mice; details: mice
# Source text: as §1
# (§4) (2) noninbred white mice: sarcoma 180, sarcoma AK, sarcoma 37, carcinoma HK;
# as §3
# [2] = Growth of graft sarcoma AK in mice; assay type: in vivo, noninbred white mice; details: mouse, in vivo, ip; mice with sarcoma AK, repeated intraperitoneal administration; read-out: Maximum tolerable dose (MTD)
# Source text: as §1, §4, §3
# carcinoma HK = assay: Growth of graft carcinoma HK in mice; assay type: in vivo, noninbred white mice; details: mice, 6 injections
# Source text: as §1, §4, §3
# [3] = Growth of graft carcinoma HK in mice; assay type: in vivo, noninbred white mice; details: mouse, in vivo, ip; mice with carcinoma HK, repeated intraperitoneal administration; read-out: Maximum tolerable dose (MTD)
# Source text: as §1, §4, §3
# sarcoma 37 = assay: Growth of graft sarcoma 37 in mice; assay type: in vivo, noninbred white mice; details: mice
# Source text: as §1, §4, §3
# [4] = Growth of graft sarcoma 37 in mice; assay type: in vivo, noninbred white mice; details: mouse, in vivo, ip; mice with sarcoma 37, repeated intraperitoneal administration; read-out: Maximum tolerable dose (MTD)
# Source text: as §1, §4, §3
# leukemia P-388 = assay: Life span of mice with transplantable leukemia P-388; assay type: in vivo, inbred mice
# Source text: as §1
# (§5) (3) inbred mice: leukemia La, leukemia L1210 and P-388.
# (§6) The activity of compounds relative to leukosis has been assessed by the life span (It) of treated animals as compared to the control ones. It --index of suppression of leukosis development is calculated by the formula: [formula]
# Solubility = assay type: physicochemical
# Experimental: as §3
# To a mixture of 3 g of N^1,N^2 -dispirotripiperazinium dichloride, 1.5 g of lithium hydroxide, 1 ml of water and 10 ml of ether a solution of 5.2 g of β-bromopropionic acid chlorid in 5 ml of ether is added under vigorous stirring and at a temperature of 5° to 10° C. The reaction mass is stirred for 2 hours at the temperature of 15° C. The residue is filtered off, dissolved in 10 ml of water; the resulting aqueous solution is poured in 100 ml of methanol.
# [5] = Toxicity on single and repeated administration to mice; assay type: in vivo
# Experimental: (3) acute toxicity of the compounds upon a single and repeated administration to white noninbred mice places into standard cages with 8 animals in each.
# In the investigation of toxic properties of the compounds according to the present invention there has been determined the absolutely lethal dose (DL95), average lethal dose (DL50) and MTD. For compounds 1 and 2 there were determined DL95 and DL50 on healthy white mice with the body mass of 18-21 g at a single and repeated (once a day, daily for 7 days) intraperitoneal administration.
# acute leucosis = assay: Clinical study on patients; assay type: in vivo
# Source text: The preparation according to the present invention has been studied in two clinics on patients with different localization of the tumoral process; the tests have justified its low toxicity.
# 54 patients were under observation including 20 patients with malignant blood diseases. In all the patients both before and after the course of treatment with the medicated compound according to the present invention the clinical state has been assessed (general state, presence of increased lymphatic nodes, liver and spleen). There were also carried out the analyses of peripheral blood, bone marrow, urine, as well as biochemical blood characteristics and electrocardiographic data (ECG).
# leukemia L1210 = assay: Life span of mice with transplantable leukemia L1210; assay type: in vivo, inbred mice
# Source text: as §1, §5, §6
# [6] = Growth of graft sarcoma 180 in mice; assay type: in vivo, noninbred white mice; details: mouse, in vivo, ip; mice with sarcoma 180, repeated intraperitoneal administration; read-out: Maximum tolerable dose (MTD)
# Source text: as §1, §4, §3
# sarcoma 180 = assay: Growth of graft sarcoma 180 in mice; assay type: in vivo, noninbred white mice; details: mice; for It, % tumor growth suppression index / Change in the animal body weight, test: 6 injections
# Source text: as §1, §4, §3
# leukemia La = assay: Life span of mice with transplantable leukemia La; assay type: in vivo, inbred mice
# Source text: as §1, §5, §6
# [7] = 50 mg/kg intraperitoneally, 7 injections
# [8] = 80 mg/kg intraperitoneally, 5 injections
# [9] = 75 mg/kg intraperitoneally, 8 injections
# [10] = 125 mg/kg intraperitoneally, 6 injections
# [11] = 250 mg/kg intraperitoneally (MTD)
# [12] = 75 mg/kg intraperitoneally, 7 injections
# [13] = mice with transplantable leukemia P-388
# [14] = mice, repeated intraperitoneal administration (once a day, daily for 7 days)
# [15] = mice, repeated intraperitoneal administration (once a day, daily for 7 days), listed as Preparation of the invention
# [16] = mice, single intraperitoneal administration
# [17] = mice with transplantable leukemia L1210
# [18] = mice with transplantable leukemia La
smiles,measurement,setting,value
"O=C(CCBr)N1CC[N+]2(CC1)CC[N+]1(CCN(C(=O)CCBr)CC1)CC2 [Compound 1, N,N^3 -di-(β-bromopropionyl)-N^1,N^2 -dispirotripiperazinium dichloride]","Change in the animal body weight, test","sarcoma 45; 20 mg/kg intraperitoneally, 7 injections",-12 g
same,"It, % tumor growth suppression index","sarcoma 45; 20 mg/kg intraperitoneally, 7 injections, 20 mg/kg",0%
same,"Change in the animal body weight, test",sarcoma 45; [7],-8 g
same,"It, % tumor growth suppression index",sarcoma 45; [7],+61%
same,"Change in the animal body weight, test",sarcoma 45; [8],-9 g
same,"It, % tumor growth suppression index",sarcoma 45; [8],+99%
same,"Change in the animal body weight, test","sarcoma 45; 125 mg/kg intraperitoneally (MTD), 5 injections",-3 g
same,MTD,[1],125 mg/kg
same,"Change in the animal body weight, test",sarcoma AK; [9],-3 g
same,"It, % tumor growth suppression index",sarcoma AK; [9],+81%
same,"Change in the animal body weight, test",sarcoma AK; [10],-1 g
same,"It, % tumor growth suppression index",sarcoma AK; [10],+62%
same,"It, % tumor growth suppression index","sarcoma AK; 200 mg/kg intraperitoneally, 5 injections",+64%
same,"Change in the animal body weight, test","sarcoma AK; 250 mg/kg intraperitoneally (MTD), 6 injections",-3 g
same,MTD,[2],250 mg/kg
same,"Change in the animal body weight, test",carcinoma HK; 125 mg/kg intraperitoneally,-3 g
same,"It, % tumor growth suppression index",carcinoma HK; 125 mg/kg intraperitoneally,+42%
same,"Change in the animal body weight, test",carcinoma HK; [11],-4 g
same,"It, % tumor growth suppression index",carcinoma HK; [11],+86%
same,MTD,[3],250 mg/kg
same,"Change in the animal body weight, test",sarcoma 37; [12],-2 g
same,"It, % tumor growth suppression index",sarcoma 37; [12],+74%
same,"It, % tumor growth suppression index","sarcoma 37; 150 mg/kg intraperitoneally, 5 injections",+53%
same,"Change in the animal body weight, test","sarcoma 37; 277 mg/kg intraperitoneally (MTD), 6 injections",-4 g
same,MTD,[4],277 mg/kg
same,"extension of life span as compared to the control, factor",leukemia P-388; leukemia P-388,2
same,"It, % index of suppression of leukosis development",leukemia P-388; [13],103%
same,Life span,leukemia P-388; [13],19.7 ± 0.2 days
same,solubility in an isotonic solution of sodium chloride,Solubility,well-soluble
same,solubility in organic solvents,Solubility,substantially insoluble
same,solubility in water,Solubility,well soluble
same,toxicity in comparison with prospidin,"[5]; less toxic than prospidin, DL50 single administration to mice",2 times
same,Ik index of toxic effect cumulation,"[5]; mice, intraperitoneal administration",82
same,DL50 (average lethal dose),[5]; [14],444 mg/kg
same,DL95 (absolutely lethal dose),[5]; [14],577 mg/kg
same,DL50 (average lethal dose),[5]; [15],444 mg/kg
same,DL95 (absolutely lethal dose),[5]; [15],577 mg/kg
same,DL50 (average lethal dose),[5]; [16],"1,924 mg/kg"
same,DL95 (absolutely lethal dose),[5]; [16],"2,272 mg/kg"
same,DL95 (absolutely lethal dose),"[5]; mice, single intraperitoneal administration, listed as Preparation of the invention",2272 mg/kg
same,DL50 (average lethal dose),"[5]; mice, single intraperitoneal administration, listed as preparation according to the present invention","1,924 mg/kg"
same,LD50,"[5]; mouse, in vivo, ip, mice, single intraperitoneal administration, read-out: DL50 (average lethal dose)",1920 mg/kg
same,MTD,"[5]; mouse, in vivo, ip, repeated intraperitoneal administration, read-out: MTD",149 mg/kg
same,patients with positive effect,"acute leucosis; intravenously, doses of from 100 to 1,000 mg",45%
same,tolerability in patients,"acute leucosis; intravenously, single doses 500 to 600 mg daily (up to 10 g for 20 days)",well tolerated
same,patients with complete clinicohematological remission,"acute leucosis; patients with acute lympho- and mielo-regional leukemiae, intravenously 100 to 1,000 mg",20%
same,"extension of life span as compared to the control, factor",leukemia L1210; leukemia L1210,1.03
same,"It, % index of suppression of leukosis development",leukemia L1210; [17],38%
same,Life span,leukemia L1210; [17],10.6 ± 2 days
same,MTD,[6],262 mg/kg
same,"tumor growth suppression class, Sarcoma 180",sarcoma 180,++ (tumor growth suppression by 80-95%)
same,"It, % tumor growth suppression index",sarcoma 180; 25 mg/kg intraperitoneally,+42%
same,"Change in the animal body weight, test",sarcoma 180; 75 mg/kg intraperitoneally,-4 g
same,"It, % tumor growth suppression index","sarcoma 180; 75 mg/kg intraperitoneally, 75 mg/kg",+74%
same,"It, % tumor growth suppression index","sarcoma 180; 75 mg/kg intraperitoneally, listed as preparation of the invention, 75 mg/kg",74%
same,"Change in the animal body weight, test",sarcoma 180; 262 mg/kg intraperitoneally (MTD),-6 g
same,extension of life span of treated mice as compared to the control,"leukemia La; leukemia La, MTD",3 times
same,"It, % index of suppression of leukosis development",leukemia La; [18],218%
same,Life span,leukemia La; [18],21.2 ± 0.1 days
